Target: T1, TRPV1 receptor (Mus musculus, UniProt Q704Y3)
T1 construct: endogenous in cells; host or cells: primary mouse dorsal root ganglion neurons
Assay: Capsaicin-induced calcium response in DRG neurons (specificity control)
Type: cell-based
Conditions: perfusion with 100 nM cilengitide
Experimental: Before imaging, cells were incubated in 350 μL of complete media containing 1 μM Fura-2 AM (Enzo Life Sciences, Farmingdale, New York, United States of America) for 30 min at 37° C. with 5% CO2. During imaging, the cells were perfused with a buffer containing the following: 135 mM sodium chloride, 3.2 mM potassium chloride, 2.5 mM magnesium chloride, 2.8 mM calcium chloride, 667 μM monobasic sodium phosphate, 14.2 mM sodium bicarbonate, and 10.9 mM D-glucose (all from VWR International, Radnor, Pennsylvania, United States of America) with a pH between 7.00 and 7.40. The buffer and the holding plate were kept at 37° C. while imaging. Imaging data was collected on a TE200 inverted microscope using NIS Elements software (Nikon, Melville, New York, United States of America). Cells were exposed to 340 nm and 380 nm wavelengths for 100 ms and the A340/A380 ratio was calculated. Traces were analyzed using Excel and responses greater than 10% of the baseline were counted. Each data point in the scatter plots represented one coverslip.
Calcium Imaging: Calcium imaging will be performed on the DRG neurons as previously described (Pitake et al., 2018). Briefly, DRG neurons will be incubated for longer than 30 min in DMEM containing 1 μM of a fluorescent indicator Fura-2 AM (Enzo Life Sciences, Inc., Farmingdale, N.Y., United States of America). The neurons will be perfused in a standard bath solution containing 140 mM NaCl, 5 mM KCl, 2 mM MgCl2, 2 mM CaCl2, 10 mM Hepes and 10 mM D-glucose at pH 7.4 adjusted with NaOH. A calcium-free bath solution will be prepared by omitting 2 mM CaCl2 from the standard bath solution […] adding 5 mM EGTA. Fura-2 fluorescence excited at 340 and 380 nm and emission will be monitored at 510 nm with a digital CCD camera (Andor Clara DR-4152, Andor Technology Ltd, Belfast, United Kingdom). Data will be obtained by every 100 ms using an imaging software (NIS-Elements AR 4.13.04, Nikon Corporation, Tokyo, Japan) and analyzed by Microsoft Excel (Microsoft Corporation, Redmond, Wash., United States of America). Values of calcium responses will be normalized by dividing measured values (F) with average values of initial 5 frames (F0) of each cell and described as F/F0. In this study, changes in each response to an application with F/F0>0.1 will be regarded as positive. Cells not responding to 100 mM KCl, which is applied at the end of each experiment, will be regarded as non-neuronal cells and excluded from analysis.
Additional inhibitors were studied using the calcium imaging method described in Example 3. Briefly, the Fura2-AM calcium imaging method was performed on live dorsal root ganglia (DRG) neurons (ex vivo). The DRG neurons are pre-incubated with the inhibitors P11 (Catalog #4744, Tocris Bioscience, Bristol, United Kingdom) and LM609 (Catalog #MAB1876, Millipore Sigma, Burlington, Mass., United States of America) or vehicle for 10 minutes and further stimulated with periostin or capsaicin in the presence of inhibitors. For Echistatin (Catalog #3202/100U, R&D Biosystems, Minneapolis, Minn., United States of America), MK-0429, and SB273005 (Catalog #S75-40, Selleck Chemicals Llc, Houston, Tex., United States of America), the DRG neurons were perfused with a normal Locke buffer vehicle or modified Locke buffer as described below. The values were normalized with KCl ([…]) to identify neuronal responses in all the calcium response data below.

T1 sequence (Q704Y3 whole entry): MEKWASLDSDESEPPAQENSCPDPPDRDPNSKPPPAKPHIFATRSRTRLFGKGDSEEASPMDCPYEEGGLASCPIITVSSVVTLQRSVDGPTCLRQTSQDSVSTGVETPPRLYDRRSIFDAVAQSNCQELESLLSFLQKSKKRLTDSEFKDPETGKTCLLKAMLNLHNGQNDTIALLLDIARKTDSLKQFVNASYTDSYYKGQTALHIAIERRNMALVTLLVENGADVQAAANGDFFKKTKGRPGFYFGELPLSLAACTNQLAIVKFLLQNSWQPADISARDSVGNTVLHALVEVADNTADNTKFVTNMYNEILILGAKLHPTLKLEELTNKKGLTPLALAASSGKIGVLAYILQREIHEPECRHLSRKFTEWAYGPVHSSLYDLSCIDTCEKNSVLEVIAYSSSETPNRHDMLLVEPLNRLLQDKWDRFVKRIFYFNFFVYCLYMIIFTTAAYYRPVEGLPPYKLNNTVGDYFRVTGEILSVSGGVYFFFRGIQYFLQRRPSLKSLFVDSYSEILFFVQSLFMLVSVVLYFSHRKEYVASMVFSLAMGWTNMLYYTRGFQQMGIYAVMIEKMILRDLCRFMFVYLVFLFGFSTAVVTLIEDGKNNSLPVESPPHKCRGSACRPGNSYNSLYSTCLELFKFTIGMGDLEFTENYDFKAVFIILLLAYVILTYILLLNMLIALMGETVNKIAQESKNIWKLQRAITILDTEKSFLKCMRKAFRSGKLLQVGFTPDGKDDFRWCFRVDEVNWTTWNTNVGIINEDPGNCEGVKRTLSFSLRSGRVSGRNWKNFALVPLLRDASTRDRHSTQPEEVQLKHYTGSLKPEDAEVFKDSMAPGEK

For `CC(C)[C@H]1C(=O)N[C@@H](CCCN=C(N)N)C(=O)NCC(=O)N[C@@H](CC(=O)O)C(=O)N[C@H](Cc2ccccc2)C(=O)N1C` [cilengitide, cyclo RGDf-n(Me)V], the capsaicin-induced calcium response was “did not reduce”.
